According to ChEMBL document CHEMBL4715760, “Balancing potency, metabolic stability and permeability in pyrrolopyrimidine-based EGFR inhibitors” (Eur J Med Chem, 2016):
pIC50: −log10 of the molar value.

Legend:
BaF3 = assay: Antiproliferative activity against mouse Ba/F3 cells expressing EGFR-L858R mutant assessed as inhibition of cell growth incubated for 48 hrs by XTT assay; type: functional, cell-based; conditions: BaF3, 48 h
A-431 = assay: Antiproliferative activity against human A431 cells; type: functional, cell-based
[1] = molecular target: Tyrosine-protein kinase ABL1 (Homo sapiens) (UniProt P00519); assay: Inhibition of recombinant full length human His-tagged ABL1 cytoplasmic domain expressed in baculovirus expression system at 500 nM using Tyr 02 peptide as substrate incubated for 1 hr in presence of ATP at its Km concentration by Z'-LYTE assay relative to control
[2] = molecular target: T1, Aurora kinase A (Homo sapiens) (UniProt O14965); assay: Inhibition of recombinant human full length His-tagged AURKA expressed in baculovirus expression system at 500 nM using Ser/Thr 01 as substrate incubated for 1 hr in presence of ATP at its Km concentration by Z'-LYTE assay relative to control
T1 sequence (whole entry): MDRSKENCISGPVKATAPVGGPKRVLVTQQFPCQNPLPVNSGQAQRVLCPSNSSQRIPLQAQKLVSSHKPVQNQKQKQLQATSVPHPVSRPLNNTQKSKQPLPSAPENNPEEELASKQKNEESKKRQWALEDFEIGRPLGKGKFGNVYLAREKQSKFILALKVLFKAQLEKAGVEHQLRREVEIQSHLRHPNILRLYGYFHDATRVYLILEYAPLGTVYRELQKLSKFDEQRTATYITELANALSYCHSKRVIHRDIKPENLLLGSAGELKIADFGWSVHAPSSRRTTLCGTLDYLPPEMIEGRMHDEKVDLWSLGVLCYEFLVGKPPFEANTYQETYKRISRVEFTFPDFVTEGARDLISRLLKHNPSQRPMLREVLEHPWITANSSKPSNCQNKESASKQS

[3] = molecular target: Macrophage colony-stimulating factor 1 receptor (Homo sapiens) (UniProt P07333); assay: Inhibition of recombinant human His-tagged CSF1R (538 to 910 residues) expressed in baculovirus expression system at 500 nM using Tyr 01 peptide as substrate incubated for 1 hr in presence of ATP at its Km concentration by Z'-LYTE assay relative to control
[4] = molecular target: Tyrosine-protein kinase CSK (Homo sapiens) (UniProt P41240); assay: Inhibition of recombinant full length human His-tagged CSK expressed in Escherichia coli expression system at 500 nM using Tyr 02 peptide as substrate incubated for 1 hr in presence of ATP at its Km concentration by Z'-LYTE assay relative to control
[5] = molecular target: Receptor tyrosine-protein kinase erbB-2 (Homo sapiens) (UniProt P04626); assay: Inhibition of recombinant human His-tagged ERBB2 (676 to 1255 residues) expressed in baculovirus expression system at 500 nM using Tyr 06 peptide as substrate incubated for 1 hr in presence of ATP at its Km concentration by Z'-LYTE assay relative to control
[6] = molecular target: Receptor tyrosine-protein kinase erbB-4 (Homo sapiens) (UniProt Q15303); assay: Inhibition of recombinant human N-terminal GST-tagged ERBB4 catalytic domain (708 to 993 residues) expressed in baculovirus expression system at 500 nM using Tyr 01 peptide as substrate incubated for 1 hr in presence of ATP at its Km concentration by Z'-LYTE assay relative to control
[7] = molecular target: Fibroblast growth factor receptor 1 (Homo sapiens) (UniProt P11362); assay: Inhibition of recombinant human His-tagged FGFR1 (308 to 731 residues) expressed in baculovirus expression system at 500 nM using Tyr 04 peptide as substrate incubated for 1 hr in presence of ATP at its Km concentration by Z'-LYTE assay relative to control
[8] = molecular target: Vascular endothelial growth factor receptor 3 (Homo sapiens) (UniProt P35916); assay: Inhibition of recombinant human GST-tagged FLT4 (800 to 1297 residues) expressed in baculovirus expression system at 500 nM using Tyr 04 peptide as substrate incubated for 1 hr in presence of ATP at its Km concentration by Z'-LYTE assay relative to control
[9] = molecular target: Tyrosine-protein kinase FRK (Homo sapiens) (UniProt P42685); assay: Inhibition of recombinant human GST-tagged full length FRK expressed in baculovirus expression system at 500 nM using Tyr 01 peptide as substrate incubated for 1 hr in presence of ATP at its Km concentration by Z'-LYTE assay relative to control
[10] = molecular target: Tyrosine-protein kinase Fyn (Homo sapiens) (UniProt P06241); assay: Inhibition of recombinant human C-terminal His-tagged full length FYN expressed in baculovirus expression system at 500 nM using Tyr 02 peptide as substrate incubated for 1 hr in presence of ATP at its Km concentration by Z'-LYTE assay relative to control
[11] = molecular target: Vascular endothelial growth factor receptor 2 (Homo sapiens) (UniProt P35968); assay: Inhibition of recombinant human His-tagged KDR (789 to 1356 residues) expressed in baculovirus expression system at 500 nM using Tyr 01 as substrate incubated for 1 hr in presence of ATP at its Km concentration by Z'-LYTE assay relative to control
[12] = molecular target: Dual specificity mitogen-activated protein kinase kinase 1 (Homo sapiens) (UniProt Q02750); assay: Inhibition of recombinant full length human His-tagged MAP2K1 expressed in baculovirus expression system at 500 nM using Ser/Thr 03 as substrate incubated for 1 hr in presence of ATP at its Km concentration by Z'-LYTE assay relative to control
[13] = molecular target: Mitogen-activated protein kinase 1 (Homo sapiens) (UniProt P28482); assay: Inhibition of recombinant full length GST-tagged human MAPK1 expressed in Escherichia coli at 500 nM using Ser/Thr 03 as substrate incubated for 1 hr in presence of 100 uM ATP by Z'-LYTE assay relative to control
[14] = molecular target: Proto-oncogene tyrosine-protein kinase receptor Ret (Homo sapiens) (UniProt P07949); assay: Inhibition of recombinant human GST-tagged RET (658 to 1114 residues) expressed in baculovirus expression system at 500 nM using Tyr 02 as substrate incubated for 1 hr in presence of ATP at its Km concentration by Z'-LYTE assay relative to control
[15] = molecular target: Tyrosine-protein kinase SYK (Homo sapiens) (UniProt P43405); assay: Inhibition of recombinant human N-terminal GST-tagged full length SYK expressed in baculovirus expression system at 500 nM using Tyr 02 as substrate incubated for 1 hr in presence of ATP at its Km concentration by Z'-LYTE assay relative to control
[16] = molecular target: Epidermal growth factor receptor (Homo sapiens, UniProt P00533); conditions: dose 100.0 nM
Description: Inhibition of human EGFR at 100 nM using poly[Glu:Tyr] (4:1) as substrate in presence of [gamma33P]ATP by radiometric HotSpot assay relative to control

[17] = molecular target: Mast/stem cell growth factor receptor Kit (Homo sapiens) (UniProt P10721); assay: Inhibition of human recombinant His-tagged c-Kit cytoplasmic domain (544 to 976 residues) expressed in baculovirus expression system at 500 nM using Tyr 06 as substrate incubated for 1 hr in presence of ATP at its Km concentration by Z'-LYTE assay relative to control

Receptor tyrosine-protein kinase erbB-2 (Homo sapiens), sequence (P04626 whole entry, the tested form may be a part): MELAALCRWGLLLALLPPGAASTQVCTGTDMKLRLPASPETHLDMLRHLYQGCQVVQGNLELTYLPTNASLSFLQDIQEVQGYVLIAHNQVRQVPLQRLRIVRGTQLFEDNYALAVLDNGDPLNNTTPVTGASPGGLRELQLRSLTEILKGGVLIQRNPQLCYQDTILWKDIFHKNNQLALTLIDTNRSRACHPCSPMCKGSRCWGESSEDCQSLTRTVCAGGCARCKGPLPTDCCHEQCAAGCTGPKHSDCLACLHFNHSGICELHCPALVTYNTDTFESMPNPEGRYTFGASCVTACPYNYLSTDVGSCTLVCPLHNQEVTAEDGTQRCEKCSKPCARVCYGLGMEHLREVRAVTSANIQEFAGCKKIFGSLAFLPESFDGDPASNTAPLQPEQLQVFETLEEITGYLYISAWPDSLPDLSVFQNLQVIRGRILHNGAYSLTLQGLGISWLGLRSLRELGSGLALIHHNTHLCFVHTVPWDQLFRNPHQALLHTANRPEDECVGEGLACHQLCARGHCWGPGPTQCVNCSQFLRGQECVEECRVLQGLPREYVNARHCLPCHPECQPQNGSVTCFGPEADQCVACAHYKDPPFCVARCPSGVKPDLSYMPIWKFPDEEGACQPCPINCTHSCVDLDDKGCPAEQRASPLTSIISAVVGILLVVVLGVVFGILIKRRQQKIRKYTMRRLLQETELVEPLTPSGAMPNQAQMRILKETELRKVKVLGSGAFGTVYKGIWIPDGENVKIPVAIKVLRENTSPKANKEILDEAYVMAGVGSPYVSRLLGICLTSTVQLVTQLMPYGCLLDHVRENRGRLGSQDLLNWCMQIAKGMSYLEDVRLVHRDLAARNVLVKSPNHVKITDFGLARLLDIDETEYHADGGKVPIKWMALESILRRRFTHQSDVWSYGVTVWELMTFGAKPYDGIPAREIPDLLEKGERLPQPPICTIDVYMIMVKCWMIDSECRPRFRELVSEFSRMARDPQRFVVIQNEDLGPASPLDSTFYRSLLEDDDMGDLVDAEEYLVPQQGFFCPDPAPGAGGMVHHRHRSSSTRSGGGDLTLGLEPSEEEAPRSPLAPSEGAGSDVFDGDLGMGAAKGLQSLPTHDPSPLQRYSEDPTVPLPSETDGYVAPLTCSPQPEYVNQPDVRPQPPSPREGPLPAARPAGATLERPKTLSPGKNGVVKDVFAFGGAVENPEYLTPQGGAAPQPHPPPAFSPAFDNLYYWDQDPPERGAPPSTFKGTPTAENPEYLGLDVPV
Receptor tyrosine-protein kinase erbB-4 (Homo sapiens), sequence (Q15303 whole entry, the tested form may be a part): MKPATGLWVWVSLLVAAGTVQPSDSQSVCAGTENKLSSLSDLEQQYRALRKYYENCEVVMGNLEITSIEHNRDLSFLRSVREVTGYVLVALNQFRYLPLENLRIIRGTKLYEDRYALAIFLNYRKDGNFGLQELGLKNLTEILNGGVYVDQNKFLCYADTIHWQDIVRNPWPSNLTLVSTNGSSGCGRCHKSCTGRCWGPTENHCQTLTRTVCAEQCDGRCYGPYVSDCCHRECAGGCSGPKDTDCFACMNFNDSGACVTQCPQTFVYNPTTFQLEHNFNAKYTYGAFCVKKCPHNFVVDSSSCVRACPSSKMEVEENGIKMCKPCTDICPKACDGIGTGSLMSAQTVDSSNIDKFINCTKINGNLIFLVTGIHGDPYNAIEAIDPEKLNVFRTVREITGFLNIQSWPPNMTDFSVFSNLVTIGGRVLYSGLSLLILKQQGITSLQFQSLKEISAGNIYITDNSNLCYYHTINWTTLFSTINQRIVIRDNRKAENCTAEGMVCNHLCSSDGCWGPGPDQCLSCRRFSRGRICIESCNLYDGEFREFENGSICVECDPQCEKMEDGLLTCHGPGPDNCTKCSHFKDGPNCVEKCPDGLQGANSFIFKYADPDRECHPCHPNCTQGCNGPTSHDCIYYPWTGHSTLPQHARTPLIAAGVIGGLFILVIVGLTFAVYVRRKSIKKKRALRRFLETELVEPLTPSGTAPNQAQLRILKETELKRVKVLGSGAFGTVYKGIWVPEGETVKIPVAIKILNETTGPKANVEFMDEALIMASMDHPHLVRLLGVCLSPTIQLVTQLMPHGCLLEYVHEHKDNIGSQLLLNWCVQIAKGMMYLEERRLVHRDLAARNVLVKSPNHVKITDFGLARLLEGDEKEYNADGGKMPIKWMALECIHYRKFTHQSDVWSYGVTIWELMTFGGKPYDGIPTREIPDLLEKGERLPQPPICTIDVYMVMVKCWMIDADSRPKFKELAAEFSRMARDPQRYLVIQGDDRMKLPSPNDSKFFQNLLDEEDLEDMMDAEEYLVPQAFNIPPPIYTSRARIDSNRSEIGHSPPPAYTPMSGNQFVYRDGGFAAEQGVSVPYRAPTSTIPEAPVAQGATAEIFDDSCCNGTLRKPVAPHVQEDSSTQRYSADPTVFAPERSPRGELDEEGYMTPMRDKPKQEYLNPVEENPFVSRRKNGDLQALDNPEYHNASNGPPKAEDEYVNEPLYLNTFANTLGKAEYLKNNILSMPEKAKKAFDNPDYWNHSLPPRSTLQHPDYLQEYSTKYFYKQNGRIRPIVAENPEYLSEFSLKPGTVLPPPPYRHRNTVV
Vascular endothelial growth factor receptor 3 (Homo sapiens), sequence (P35916 whole entry, the tested form may be a part): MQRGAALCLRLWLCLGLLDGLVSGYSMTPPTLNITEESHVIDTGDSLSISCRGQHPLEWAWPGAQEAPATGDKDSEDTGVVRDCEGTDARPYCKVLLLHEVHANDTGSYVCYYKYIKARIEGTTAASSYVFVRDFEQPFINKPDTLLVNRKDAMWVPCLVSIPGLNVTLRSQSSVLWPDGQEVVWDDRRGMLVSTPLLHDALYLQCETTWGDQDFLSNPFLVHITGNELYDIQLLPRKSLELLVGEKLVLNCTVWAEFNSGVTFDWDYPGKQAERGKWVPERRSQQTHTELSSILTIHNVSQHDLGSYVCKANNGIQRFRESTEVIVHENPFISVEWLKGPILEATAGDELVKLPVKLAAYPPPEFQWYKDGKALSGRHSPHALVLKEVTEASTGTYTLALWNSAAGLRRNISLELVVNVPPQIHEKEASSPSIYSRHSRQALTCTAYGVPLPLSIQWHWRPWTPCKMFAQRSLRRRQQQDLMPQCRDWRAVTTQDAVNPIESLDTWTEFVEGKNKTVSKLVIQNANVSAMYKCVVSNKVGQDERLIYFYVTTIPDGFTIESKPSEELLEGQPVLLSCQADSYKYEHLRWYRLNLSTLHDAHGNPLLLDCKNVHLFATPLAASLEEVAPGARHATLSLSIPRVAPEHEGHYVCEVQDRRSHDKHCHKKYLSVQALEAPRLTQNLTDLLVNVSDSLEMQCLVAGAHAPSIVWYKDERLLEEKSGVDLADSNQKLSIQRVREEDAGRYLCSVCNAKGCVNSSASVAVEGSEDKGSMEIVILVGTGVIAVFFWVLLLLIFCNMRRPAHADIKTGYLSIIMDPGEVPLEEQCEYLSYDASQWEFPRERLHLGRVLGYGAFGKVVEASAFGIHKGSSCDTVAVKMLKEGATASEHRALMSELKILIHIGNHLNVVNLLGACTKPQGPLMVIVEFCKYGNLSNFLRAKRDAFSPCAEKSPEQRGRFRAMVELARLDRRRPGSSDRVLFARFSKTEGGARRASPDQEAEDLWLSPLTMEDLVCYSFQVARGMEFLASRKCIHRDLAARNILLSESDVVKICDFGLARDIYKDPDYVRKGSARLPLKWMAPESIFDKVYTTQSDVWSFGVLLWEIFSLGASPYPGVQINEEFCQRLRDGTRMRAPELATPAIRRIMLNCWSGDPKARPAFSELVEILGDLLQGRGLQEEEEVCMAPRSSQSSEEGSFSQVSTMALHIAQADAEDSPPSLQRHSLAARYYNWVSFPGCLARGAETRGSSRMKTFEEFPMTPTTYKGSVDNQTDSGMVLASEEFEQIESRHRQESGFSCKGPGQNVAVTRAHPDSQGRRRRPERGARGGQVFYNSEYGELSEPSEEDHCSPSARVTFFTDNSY
Tyrosine-protein kinase CSK (Homo sapiens), sequence (P41240 2-450 limits assumed): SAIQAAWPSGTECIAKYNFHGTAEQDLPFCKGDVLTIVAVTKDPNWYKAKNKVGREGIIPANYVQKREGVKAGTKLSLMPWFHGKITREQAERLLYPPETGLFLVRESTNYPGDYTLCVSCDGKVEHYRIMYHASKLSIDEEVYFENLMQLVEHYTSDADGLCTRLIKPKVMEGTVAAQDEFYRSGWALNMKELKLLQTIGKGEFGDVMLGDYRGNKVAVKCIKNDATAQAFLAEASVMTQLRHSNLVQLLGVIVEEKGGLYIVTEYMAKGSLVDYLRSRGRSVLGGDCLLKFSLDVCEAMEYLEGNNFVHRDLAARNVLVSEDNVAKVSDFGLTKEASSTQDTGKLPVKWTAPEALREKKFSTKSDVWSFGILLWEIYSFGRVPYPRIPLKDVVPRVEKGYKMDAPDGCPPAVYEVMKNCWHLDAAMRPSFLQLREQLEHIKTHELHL
Tyrosine-protein kinase Fyn (Homo sapiens), sequence (P06241 2-537 limits assumed): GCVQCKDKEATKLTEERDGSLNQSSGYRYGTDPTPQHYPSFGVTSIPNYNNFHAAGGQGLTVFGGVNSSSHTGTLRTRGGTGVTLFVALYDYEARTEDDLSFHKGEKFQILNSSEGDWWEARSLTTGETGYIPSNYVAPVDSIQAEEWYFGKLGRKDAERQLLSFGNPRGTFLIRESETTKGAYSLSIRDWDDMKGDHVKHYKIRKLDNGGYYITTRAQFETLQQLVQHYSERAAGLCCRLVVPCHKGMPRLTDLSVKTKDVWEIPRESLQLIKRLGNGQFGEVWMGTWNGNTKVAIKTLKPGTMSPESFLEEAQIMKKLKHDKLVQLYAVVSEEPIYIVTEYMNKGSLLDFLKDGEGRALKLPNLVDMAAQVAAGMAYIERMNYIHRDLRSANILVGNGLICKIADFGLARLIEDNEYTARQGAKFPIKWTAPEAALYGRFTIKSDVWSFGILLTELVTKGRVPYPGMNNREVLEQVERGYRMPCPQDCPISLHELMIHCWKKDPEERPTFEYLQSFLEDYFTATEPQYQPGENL

Structure (SMILES)	pIC50 (BaF3)	pIC50 (A-431)	inhibition [1]	inhibition [2]	inhibition [3]	inhibition [4]	inhibition [5]	inhibition [6]	inhibition [7]	inhibition [8]	inhibition [9]	inhibition [10]	inhibition [11]	inhibition [12]	inhibition [13]	inhibition [14]	inhibition [15]	inhibition [16]	inhibition [17]	inhibition ([16]; tested as the 2H-labelled form)
CCOc1ccccc1-c1cc2c(N[C@H](CO)c3ccccc3)ncnc2[nH]1	7.01	5.04	33%	-2%	82%	17%	35%	62%	3%	21%	32%	34%	9%	10%	1%	9%	11%	98%	–	–
C#Cc1cccc(Nc2ncnc3cc(OCCOC)c(OCCOC)cc23)c1 [ERLOTINIB]	7.06	6.40	–	20%	–	–	52%	–	-4%	44%	16%	–	–	–	7%	–	–	–	17%	–
OC[C@@H](Nc1ncnc2[nH]c(-c3ccccc3)cc12)c1ccccc1	–	6.52	65%	19%	88%	9%	53%	51%	16%	6%	33%	27%	28%	-8%	1%	14%	29%	–	20%	–
COc1ccccc1-c1cc2c(N[C@H](CO)c3ccccc3)ncnc2[nH]1	6.87	–	50%	9%	79%	6%	53%	79%	6%	12%	36%	27%	15%	-4%	1%	15%	14%	–	17%	99%
CN(C)CCNCc1ccc(-c2cc3c(N[C@H](CO)c4ccccc4)ncnc3[nH]2)cc1F	6.85	< 5.00	87%	3%	86%	17%	58%	74%	9%	27%	49%	55%	53%	13%	–	25%	21%	99%	1%	–
OCC[C@@H](Nc1ncnc2[nH]c(-c3ccccc3)cc12)c1ccccc1	7.12	6.10	38%	-3%	74%	19%	36%	15%	0%	20%	14%	26%	0%	5%	5%	2%	5%	99%	–	–
